Reference: patent US4073941A, “Aralkyl amides having antidepressive activity” (priority 1975, dated 1978)
Values after ≈ are worked out from the molar mass of the structure shown. Where a name gives a salt, the structure may show the parent alone. Read-outs that look alike come from different tables or passages of the source.

Tests used:
[1] = tested on: 5-HTP induced behavioural syndrome in mice; experiment: 5-HTP response potentiation test; assay type: in vivo; conditions: Mus musculus, least dose producing maximal score (+3) in all animals, before dl-5-HTP 90 mg/kg i.v.
Method: 1. 5-HTP response potentiation test
Inhibition of the uptake of 5-HT potentiates the effects of administered 5-hydroxytryptophan (5-HTP) probably by increasing the amount of 5-HT at the receptor. Three mice are given the test drugs 1 hour (or 4, 24 hours) before d1-5-HTP 90 mg/kg i.v. 5-HTP alone gives only a weak behavioural syndrome but in pretreated mice there is seen a characteristic behavioural syndrome, which comes within 5 minutes: tremor, lordosis, abduction of the hindlegs, head-twiches. The strength of the syndrome is scored from 0 to +3. Each group consists of 3 animals and at least 4 groups were tested at 25 mg/kg i.p. Control groups receiving imipramine (Tofranil®) are used as reference, since imipramine constantly potentiated d1-5-HTP. The least dose of the test compound producing maximal score (+3) in all animals is estimated from a logarithmic dose-response curve, and is denoted "effective dose" in the following Table.

[2] = tested on: uptake of 14C-5-HT (5-hydroxytryptamine) in brain slices; experiment: Inhibition of the uptake of 14C-5-HT in mouse midbrain slices, compound added in vitro; assay type: cell-based, mice; conditions: 5 min, concentration producing 50 percent decrease of active uptake (ED50), 5-HT 1×10^-7 M, 5 min incubation
Method: (§1) 1. Inhibition of the uptake of carbon-14 5-HT and tritiated noradrenaline in vitro and in vivo
(§2) The method is described by Ross, Renyi and Ogren in European Journal of Pharmacology 17 (1972), 107-112. Tricyclic antidepressant drugs of type imipramine added in vitro or given in vivo to mice decrease the uptake of ^14 C-5-HT and ^3 H-NA in vitro. In the in vitro experiments different concentrations of the test compound were added to the incubation medium. In the in vivo experiments different doses of the test drug were administered intraperitoneally half an hour before the animals were killed. The incubation performance was the same in the two types of experiments, i.e. the midbrain was taken out and sliced and incubated in a mixture consisting of, per 100 mg of brain slices, 0.2 n-mole of ^14 C-5-HT, 0.2 n-mole of ^3 H-NA and 11 μmole of glucose in 2 ml of Krebs-Henseleit buffer, pH 7.4. The incubation time was 5 minutes. The radioactive amines taken up in the slices were dissolved in Soluene-350® (Packard) and the amounts were determined with the double labelling technique by liquid scintillation. The concentration or dose producing 50 percent decrease of the active uptake (ED50) was determined graphically from dose-response curves. Active uptake is defined as that part of the radioactive uptake which is inhibited by a high concentration of cocaine. […]

[3] = tested on: uptake of 14C-5-HT (5-hydroxytryptamine) in brain slices; experiment: Inhibition of the uptake of 14C-5-HT in midbrain slices after in vivo i.p. administration to mice; conditions: Mus musculus, ip, 0.5 h; dose producing 50 percent decrease of active uptake (ED50); i.p. half an hour before killing; 5-HT 1×10^-7 M
Method: as §1
(§3) The method is described by Ross, Renyi and Ogren in European Journal of Pharmacology 17 (1972), 107-112. […] In the in vitro experiments different concentrations of the test compound were added to the incubation medium. In the in vivo experiments different doses of the test drug were administered intraperitoneally half an hour before the animals were killed. The incubation performance was the same in the two types of experiments, i.e. the midbrain was taken out and sliced and incubated in a mixture consisting of, per 100 mg of brain slices, 0.2 n-mole of ^14 C-5-HT, 0.2 n-mole of ^3 H-NA and 11 μmole of glucose in 2 ml of Krebs-Henseleit buffer, pH 7.4. The incubation time was 5 minutes. The radioactive amines taken up in the slices were dissolved in Soluene-350® (Packard) and the amounts were determined with the double labelling technique by liquid scintillation. The concentration or dose producing 50 percent decrease of the active uptake (ED50) was determined graphically from dose-response curves. Active uptake is defined as that part of the radioactive uptake which is inhibited by a high concentration of cocaine. All doses were given at least to four animals.

[4] = tested on: uptake of 3H-NA (noradrenaline) in brain slices; experiment: Inhibition of the uptake of 3H-noradrenaline in midbrain slices after in vivo i.p. administration to mice; conditions: Mus musculus, ip, 0.5 h; dose producing 50 percent decrease of active uptake (ED50); i.p. half an hour before killing; 1-noradrenaline 1×10^-7 M
Method: as §1, §3

[5] = tested on: uptake of 3H-NA (noradrenaline) in brain slices; experiment: Inhibition of the uptake of 3H-noradrenaline in mouse midbrain slices, compound added in vitro; assay type: cell-based, mice; conditions: 5 min, read-out: Inhibition (50 %) of uptake in vitro NA
Method: as §1, §2

| SMILES | minimal effective dose [1] [mg/kg] | IC50 [2] [µg/mL] | ED50 [3] [mg/kg] | ED50 [4] [mg/kg] | IC50 ([5]; Mus musculus) [µg/mL] | IC50 ([5]; concentration producing 50 percent decrease of active uptake (ED50), 1-noradrenaline 1×10^-7 M, mouse midbrain slices, 5 min incubation) [µg/mL] |
| --- | --- | --- | --- | --- | --- | --- |
| CC(N)C(=O)NC(C)(C)Cc1ccc(Cl)cc1 (stereo not shown) [GEA 609, 2-amino-N^1 - 3-(4-chlorophenyl)-2-methyl-2-propyl! propanoic acid amide hydrochloride] | 0.5 | 0.7 | 20 | > 40 | > 10 |  |
| CN(C)CCCN1c2ccccc2CCc2ccccc21 [Imipramine, imipramine] | 15 | 0.1 (≈ 0.357 µM) | 24 | 6 |  | 0.06 (≈ 0.214 µM) |
